Experimental data: US8623864B2, “Thioridazine and derivatives thereof for reversing anti-microbial drug-resistance” (NOA Sic Aps, priority 2003, dated 2014)
Read-outs that look alike come from different tables or passages of the source.

Key:
[1] = test system: a known bacterial strain; experiment: MIC of erythromycin and thioridazine, alone and combined; type: cell-based
[2] = test system: Enterococcus faecalis; experiment: Microdilution checkerboard, antibiotic plus resistance modifier; type: cell-based
[3] = test system: human Enterococcus faecalis; experiment: as above; type: cell-based; conditions: Enterococcus faecalis, drug alone
[4] = test system: tumour cell lines; conditions: Akiyama et al. 1986; cited from earlier work
[5] = test system: Mycobacterium tuberculosis; conditions: Ordway et al. 2003; cited from earlier work
[6] = test system: a common bacterial strain; experiment: MIC of oxacillin alone and combined with thioridazine; type: cell-based; conditions: read-out: effective MIC
[7] = strain A, each drug in the combination AMP + THIO
[8] = strain A, each drug in the combination VAN + THIO
[9] = strain B, each drug in the combination AMP + THIO
[10] = strain B, each drug in the combination VAN + THIO
[11] = strain C, each drug in the combination AMP + THIO
[12] = strain C, each drug in the combination VAN + THIO
[13] = strain D, each drug in the combination AMP + THIO
[14] = strain D, each drug in the combination VAN + THIO
[15] = strain E, each drug in the combination AMP + THIO
[16] = strain E, each drug in the combination VAN + THIO
[17] = strain A, read-out: MIC of single drug (microdilution checkerboard)
[18] = strain B, read-out: MIC of single drug (microdilution checkerboard)
[19] = strain C, read-out: MIC of single drug (microdilution checkerboard)
[20] = strain D, read-out: MIC of single drug (microdilution checkerboard)
[21] = strain E, read-out: MIC of single drug (microdilution checkerboard)
[22] = strain A, each drug in the combination AMP + PCP
[23] = strain A, each drug in the combination VAN + PCP
[24] = strain B, each drug in the combination AMP + PCP
[25] = strain B, each drug in the combination VAN + PCP
[26] = strain C, each drug in the combination AMP + PCP
[27] = strain C, each drug in the combination VAN + PCP
[28] = strain D, each drug in the combination AMP + PCP
[29] = strain D, each drug in the combination VAN + PCP
[30] = strain E, each drug in the combination AMP + PCP
[31] = strain E, each drug in the combination VAN + PCP

| Structure (SMILES) | MIC [1] | Combination of drugs (MIC) [2, 7] | Combination of drugs (MIC) [2, 8] | Combination of drugs (MIC) [2, 9] | Combination of drugs (MIC) [2, 10] | Combination of drugs (MIC) [2, 11] | Combination of drugs (MIC) [2, 12] | Combination of drugs (MIC) [2, 13] | Combination of drugs (MIC) [2, 14] | Combination of drugs (MIC) [2, 15] | Combination of drugs (MIC) [2, 16] | MIC [3, 17] | MIC [3, 18] | MIC [3, 19] | MIC [3, 20] | MIC [3, 21] | Combination of drugs (MIC) [2, 22] | Combination of drugs (MIC) [2, 23] | Combination of drugs (MIC) [2, 24] | Combination of drugs (MIC) [2, 25] | other results |
| --- | --- | --- | --- | --- | --- | --- | --- | --- | --- | --- | --- | --- | --- | --- | --- | --- | --- | --- | --- | --- | --- |
| CSc1ccc2c(c1)N(CCC1CCCCN1C)c1ccccc1S2 (racemic) [THIO, thioridazine] | 16 µg/mL | 16 µg/mL | 8 µg/mL | 8 µg/mL | 32 µg/mL | AMP (4) + THIO (4) μg/ml | 4 µg/mL | 4 µg/mL | 8 µg/mL | 8 µg/mL | 2 µg/mL | 32 µg/mL | 32 µg/mL | 32 µg/mL | 32 µg/mL | 32 µg/mL | – | – | – | – | Reversal of resistance to antineoplastic agents [4]: effective in reversing resistance to a variety of antineoplastic agents; Ability to kill bacteria in vitro [5]: kill Mycobacterium tuberculosis in vitro |
| CC[C@H]1OC(=O)[C@H](C)[C@@H](O[C@H]2C[C@@](C)(OC)[C@@H](O)[C@H](C)O2)[C@H](C)[C@@H](O[C@@H]2O[C@H](C)C[C@H](N(C)C)[C@H]2O)[C@](C)(O)C[C@@H](C)C(=O)[C@H](C)[C@@H](O)[C@]1(C)O [Erythromycin] | 24 µg/mL | – | – | – | – | – | – | – | – | – | – | – | – | – | – | – | – | – | – | – | Erythromycin concentration needed in combination ([1]; combined with 12 μg/ml of the levorotatory isomer of thioridazine): 1 µg/mL; Erythromycin concentration needed in combination ([1]; combined with 12 μg/ml of thioridazine in racemic form): less than 8 μg/ml |
| CN1CCN(CCCN2c3ccccc3Sc3ccc(Cl)cc32)CC1 [PCP, prochlorperazine] | – | – | – | – | – | – | – | – | – | – | – | 32 µg/mL | 64 µg/mL | 32 µg/mL | 32 µg/mL | 32 µg/mL | 0.25 µg/mL | 16 µg/mL | 16 µg/mL | 16 µg/mL | Combination of drugs (MIC) [2, 26]: 0.5 µg/mL; Combination of drugs (MIC) [2, 27]: 8 µg/mL; Combination of drugs (MIC) [2, 28]: 8 µg/mL; Combination of drugs (MIC) [2, 29]: 8 µg/mL; Combination of drugs (MIC) [2, 30]: 16 µg/mL; Combination of drugs (MIC) [2, 31]: 8 µg/mL |
| CC1(C)S[C@@H]2[C@H](NC(=O)[C@H](N)c3ccccc3)C(=O)N2[C@H]1C(=O)O [ampicillin] | – | 1 µg/mL | – | 0.5 µg/mL | – | AMP (4) + THIO (4) μg/ml | – | 0.25 µg/mL | – | 16 µg/mL | – | 32 µg/mL | 2 µg/mL | 16 µg/mL | 1 µg/mL | 128 µg/mL | 32 µg/mL | – | 0.5 µg/mL | – | Combination of drugs (MIC) [2, 26]: 8 µg/mL; Combination of drugs (MIC) [2, 28]: 0.25 µg/mL; Combination of drugs (MIC) [2, 30]: 64 µg/mL |
| Cc1onc(-c2ccccc2)c1C(=O)N[C@@H]1C(=O)N2[C@@H]1SC(C)(C)[C@@H]2C(=O)O [oxacillin] | – | – | – | – | – | – | – | – | – | – | – | – | – | – | – | – | – | – | – | – | MIC ([6]; combined with 8 μg/ml of thioridazine): 1 µg/mL; MIC ([6]; oxacillin alone, common bacterial strain): > 256 µg/mL |
| CN[C@H](CC(C)C)C(=O)N[C@H]1C(=O)N[C@@H](CC(N)=O)C(=O)N[C@H]2C(=O)N[C@H]3C(=O)N[C@H](C(=O)N[C@H](C(=O)O)c4cc(O)cc(O)c4-c4cc3ccc4O)[C@H](O)c3ccc(c(Cl)c3)Oc3cc2cc(c3O[C@@H]2O[C@H](CO)[C@@H](O)[C@H](O)[C@H]2O[C@H]2C[C@](C)(N)[C@H](O)[C@H](C)O2)Oc2ccc(cc2Cl)[C@H]1O [vancomycin] | – | – | 6 µg/mL | – | 2 µg/mL | – | 64 µg/mL | – | 32 µg/mL | – | 1 µg/mL | – | – | – | – | – | – | 48 µg/mL | – | 1 µg/mL | Combination of drugs (MIC) [2, 27]: 64 µg/mL; Combination of drugs (MIC) [2, 29]: 32 µg/mL; Combination of drugs (MIC) [2, 31]: 0.5 µg/mL; MIC ([3]; read-out: MIC of single drug (microdilution checkerboard), strain A): 192 µg/mL; MIC ([3]; read-out: MIC of single drug (microdilution checkerboard), strain B): 4 µg/mL; MIC ([3]; read-out: MIC of single drug (microdilution checkerboard), strain C): 128 µg/mL; MIC ([3]; read-out: MIC of single drug (microdilution checkerboard), strain D): 500 µg/mL; MIC ([3]; read-out: MIC of single drug (microdilution checkerboard), strain E): 2 µg/mL |
